Experimental findings from patent publication US9765075B2, “Substituted bridged urea analogs as sirtuin modulators” (GLAXOSMITHKLINE LLC, priority 2013, dated 2017) are described below.

Positions count from the first letter of the chain named. Structures can show the parent of a compound that is named as a salt.

What all share (format): biochemical
One series concerns the target T1, full-length hSIRT1 WT (Homo sapiens, UniProt Q96EB6).
T1 construct: Full-length human SIRT1 (hSIRT1) proteins were expressed with a C-terminal His6 tag; His6 (C); made in house
T1 sequence (Q96EB6 1-747): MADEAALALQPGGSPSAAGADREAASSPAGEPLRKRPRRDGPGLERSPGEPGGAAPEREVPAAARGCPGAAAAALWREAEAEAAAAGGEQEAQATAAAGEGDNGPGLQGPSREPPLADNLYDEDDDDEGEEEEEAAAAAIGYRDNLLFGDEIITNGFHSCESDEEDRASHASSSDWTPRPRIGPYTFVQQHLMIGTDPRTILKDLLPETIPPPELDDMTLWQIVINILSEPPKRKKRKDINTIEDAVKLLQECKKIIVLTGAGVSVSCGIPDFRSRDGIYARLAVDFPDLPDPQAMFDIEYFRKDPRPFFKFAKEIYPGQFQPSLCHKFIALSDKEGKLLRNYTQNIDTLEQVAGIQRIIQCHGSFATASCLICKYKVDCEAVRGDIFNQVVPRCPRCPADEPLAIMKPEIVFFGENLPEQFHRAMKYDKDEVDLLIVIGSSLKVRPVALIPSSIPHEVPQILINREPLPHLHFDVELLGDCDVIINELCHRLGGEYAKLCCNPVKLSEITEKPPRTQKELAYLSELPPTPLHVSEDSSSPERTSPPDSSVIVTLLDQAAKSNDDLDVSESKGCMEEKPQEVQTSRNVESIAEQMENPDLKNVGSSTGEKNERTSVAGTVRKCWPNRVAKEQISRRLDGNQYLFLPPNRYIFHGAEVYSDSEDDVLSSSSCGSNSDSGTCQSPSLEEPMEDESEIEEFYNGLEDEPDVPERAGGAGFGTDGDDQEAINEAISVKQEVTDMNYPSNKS
Nature of the series: SIRT1 activation dose-response, OAcADPr assay with Ac-p53(W5) substrate. The settings on record: for EC50: hSIRT1 WT, activation dose-response, Ac-p53(W5) substrate.

A further series concerns the target T2, full-length hSIRT1 I223A (Homo sapiens, UniProt Q96EB6, I223A).
T2 construct: The following point mutants of full-length hSIRT1 were generated; His6 (C); made in house
T2 sequence (Q96EB6 1-747 I223A): T1 sequence (Q96EB6 1-747) with I223A
Nature of the series: SIRT1 inhibition assay, OAcADPr mass spectrometry.

The target of the next series is T3, full-length hSIRT1 Q222A (Homo sapiens, UniProt Q96EB6, Q222A).
T3 construct: The following point mutants of full-length hSIRT1 were generated; made in house
T3 sequence (Q96EB6 1-747 Q222A): T1 sequence (Q96EB6 1-747) with Q222A
Nature of the series: SIRT1 inhibition assay, OAcADPr mass spectrometry.

`O=C(Nc1ccccn1)N1c2nc(-c3cccc(C(F)(F)F)c3)ccc2N2CC[C@H]1C2` [Example 7]: on full-length hSIRT1 WT, the “EC50 fold shift (mutant EC50/wild-type EC50)” value is listed as 1.00, the “RVmax fold shift = (wild-type RVmax−1)/(mutant RVmax−1)” value is 1.00 and the response was half-maximal at 2200 nM (EC50).
In the case of `Cc1cnc2c(NC(=O)N3c4nc(-c5cccc(C(F)(F)F)c5)ccc4N4CC[C@H]3C4)cccc2n1` [Example 8], on full-length hSIRT1 WT, the “EC50 fold shift (mutant EC50/wild-type EC50)” value came to 1.00, the “RVmax fold shift = (wild-type RVmax−1)/(mutant RVmax−1)” value is reported as 1.00 and the 50% effective concentration (EC50) was 480 nM.
With `CCCC[C@H](NC(=O)[C@H](CC(C)C)NC(=O)[C@H](CCCCNC(=O)C(F)(F)F)NC(=O)[C@H](CCCCN)NC(=O)[C@H](Cc1c[nH]cn1)NC(=O)[C@H](CCCNC(=N)N)NC(C)=O)C(=O)N[C@@H](Cc1ccccc1)C(N)=O` [TFA-p53 7-mer, Ac-RHK-K^TFA-L-Nle-F-NH2], the 50% inhibitory concentration (IC50) on full-length hSIRT1 I223A was 540 ± 150 nM; against full-length hSIRT1 Q222A it was 630 ± 50 nM.
